Laboratory results from publication PMC9234021 (Cell Reports, 2022).
Where two headings read alike, the source gives them in different places. No end group written: not given here.

Columns and labels:
SARS-CoV-2 [1] = format: cell-based, SARS-CoV-2 isolate USA-WA1/2020; conditions: p = 0.0001, three independent experiments in duplicate
SARS-CoV-2 [2] = format: cell-based, SARS-CoV-2 isolate USA-WA1/2020; conditions: p = 0.0004, three independent experiments in triplicate
SARS-CoV-2 [3] = format: in vivo, K18-hACE2 C57BL/6J mice; conditions: JQ1 50 mg/kg i.p. or ABBV-744 20 mg/kg oral once daily, n = 5 per group
[4] = test system: SARS-CoV-2 nucleocapsid (N) protein; format: in vivo, K18-hACE2 C57BL/6J mice; conditions: JQ1 50 mg/kg i.p. or ABBV-744 20 mg/kg oral once daily
[5] = test system: lungs of SARS-CoV-2 infected mice; design: species or system K18-hACE2 C57BL/6J mice; conditions: mouse, in vivo
SARS-CoV-2 [6] = test system: SARS-CoV-2; design: species or system K18-hACE2 C57BL/6J mice; conditions: mouse, in vivo
[7] = identical treatment with JQ1 or ABBV-744, H&E
BET proteins = conditions: cited from earlier work
SARS-CoV-2 [8] = conditions: mouse, in vivo; cited from earlier work
Calu3 cells [9] = format: cell-based
A549 cells = experiment: qRT-PCR of poly; format: cell-based
influenza A = conditions: cited from earlier work
A549-ACE2 cells = experiment: Cell viability; format: cell-based; conditions: A549-ACE2, 500 nM, 48 hours, CellTiter-Glo, relative to DMSO
Calu3 cells [10] = experiment: Cell viability; format: cell-based; conditions: Calu3, 500 nM, 48 hours, CellTiter-Glo, relative to DMSO
[11] = biological target: BRD4 second bromodomain BD2 (349-460), His-SUMO tag removed (UniProt O60885 349-460, 15N-labeled); experiment: NMR titration
[12] = pan-BET inhibitors, no reference given

## CCNC(=O)c1cc2c(-c3cc(C(C)(C)O)ccc3Oc3c(C)cc(F)cc3C)cn(C)c(=O)c2[nH]1 [ABBV-744, N-Ethyl-4-[2-(4-fluoro-2,6-dimethyl-phenoxy)-5-(1-hydroxy-1-methyl-ethyl)phenyl]-6-methyl-7-oxo-1H-pyrrolo[2,3-c]pyridine-2-carboxamide]
SARS-CoV-2 [1]
  increase in infectious particle production: 3 fold
SARS-CoV-2 [2]
  increase in SARS-CoV-2 viral RNA: 3 fold
SARS-CoV-2 [3]
  increase in infectious particle production in lungs: 37 fold
[4]
  immunohistochemical staining for SARS-CoV-2 N protein in lungs: increased
[5]
  CCL2 expression in lungs: significant decreases
  CXCL9 expression in lungs: significant decreases
  CXCL10 expression in lungs: significant decreases
  IL1a expression in lungs: significant decreases
  IL6 expression in lungs: significant decreases
  ISG15 expression in lungs: significant decreases
  RIG-I expression in lungs: significant decreases
SARS-CoV-2 [6]
  immune cell infiltration in the lungs: decrease in immune cell infiltration
[7]
  lung inflammation in healthy, uninfected mice: did not experience lung inflammation
BET proteins; ABBV-744, ref Sheppard et al., 2020
  bromodomain specificity: specifically targets BD2-mediated interactions

## Cc1noc(C)c1-c1ccc2[nH]c(=O)n3c2c1OC[C@@H]3c1ccccn1 [INCB054329]
SARS-CoV-2 [8]
  lung pathology: severe lung pathology
  viral RNA in the lungs: significant viral RNA in the lungs

## Cc1sc2c(c1C)C(c1ccc(Cl)cc1)=N[C@@H](CC(=O)OC(C)(C)C)c1nnc(C)n1-2 [JQ1]
Calu3 cells [9]
  IFNB1 expression: suppressed
  IL6 expression: suppressed
  ISG15 expression: suppressed
A549 cells
  poly(I:C)-mediated induction of IFNB1: dampened
  poly(I:C)-mediated induction of IL6: dampened
  poly(I:C)-mediated induction of ISG15: dampened
SARS-CoV-2 [3]
  increase in infectious particle production in lungs: 18 fold
[4]
  immunohistochemical staining for SARS-CoV-2 N protein in lungs: increased
[5]
  CCL2 expression in lungs: significant decreases
  CXCL9 expression in lungs: significant decreases
  CXCL10 expression in lungs: significant decreases
  IL1a expression in lungs: significant decreases
  IL6 expression in lungs: significant decreases
  ISG15 expression in lungs: significant decreases
  RIG-I expression in lungs: significant decreases
SARS-CoV-2 [6]
  immune cell infiltration in the lungs: decrease in immune cell infiltration
[7]
  lung inflammation in healthy, uninfected mice: did not experience lung inflammation
Influenza A
  transcriptional activation of the antiviral response: attenuates transcriptional activation of the antiviral response
BET proteins; [12]
  bromodomain specificity: disrupt BD1- and BD2-mediated interactions

## Cc1sc2c(c1C)C(c1ccc(Cl)cc1)=N[C@@H](CC(=O)NCCCCCCCCNC(=O)COc1cccc3c1C(=O)N(C1CCC(=O)NC1=O)C3=O)c1nnc(C)n1-2 (stereo partly shown) [dBET6]
A549-ACE2 cells
  viability: non-toxic
Calu3 cells [10]
  viability: non-toxic
Calu3 cells [9]
  IFNB1 expression: suppressed
  IL6 expression: suppressed
  ISG15 expression: suppressed
A549 cells
  poly(I:C)-mediated induction of IFNB1: dampened
  poly(I:C)-mediated induction of IL6: dampened
  poly(I:C)-mediated induction of ISG15: dampened
BET proteins; [12]
  bromodomain specificity: disrupt BD1- and BD2-mediated interactions

## VYSRVK(Ac)NLNSS [SARS-CoV-2 E peptide, residues 58-68, acetylated at K63]
[11]
  Kd: 170 ± 60 µM

## NVSLVK(Ac)PSFYV [SARS-CoV-2 E peptide, residues 48-58, acetylated at K53]
[11]
  Kd: 610 ± 160 µM
